The values below come from PubChem BioAssay AID1996.

≈ marks a conversion by molar mass, not a printed value.

The conditions of this series: buffer; pH 7.4; 200.0 µM.
In turn, `Cc1cc(C)nc(NC(=O)Cc2ccc(Br)cc2)n1` showed a kinetic solubility of over 48 µg/mL. With `CCCCCc1c(C)[nH]c2nc3ccccc3n2c1=O`, the solubility (kinetic) is 0.3 µg/mL (≈ 1.11 µM). As for `CCOC(=O)CSCc1csc(CC(=O)Nc2ccccc2C)n1`, the figure is 52.4 µg/mL (≈ 144 µM); as for `COc1ccc(/C=C/C(=O)OCC(=O)c2ccc[nH]2)cc1`, 5 µg/mL (≈ 17.5 µM).

With `Cc1cccc(NC(=O)Cn2c(=O)oc3ccccc32)c1C`, the solubility (kinetic) came to 6.6 µg/mL (≈ 22.3 µM). `O=C(COC(=O)Cn1cnc2ccccc21)Nc1ccc(F)c(F)c1` had a kinetic solubility of over 51.8 µg/mL. As for `COc1ccc(C(=O)O)cc1S(=O)(=O)N1CCCc2ccccc21`, the figure is over 52.1 µg/mL. In the case of `O=C(CN1C(=O)NC(c2ccccc2)(c2ccccc2)C1=O)NCCc1ccc(F)cc1`, the solubility (kinetic) stood at 7.6 µg/mL (≈ 17.6 µM).

`COc1ccc(NS(=O)(=O)c2ccc(Cl)c(NC(=O)c3ccccc3F)c2)cc1` gave a solubility (kinetic) of 2.6 µg/mL (≈ 5.98 µM). The figure for `Cc1ccccc1SCC(=O)OCC(=O)NCc1ccccc1` is over 49.4 µg/mL. As for `O=C(COC(=O)Cc1c(Cl)cccc1Cl)NCc1ccco1`, the figure is over 51.3 µg/mL. As for `C=CCNc1nc(N)c([N+](=O)[O-])c(Nc2cccc(Cl)c2)n1`, the figure is 0.1 µg/mL (≈ 0.312 µM); as for `O=[N+]([O-])c1cccc(-c2cnc3ccccc3n2)c1`, under 0.2 µg/mL; as for `O=C1CCC(=O)N1CCSC(=S)N1CCOCC1`, over 43.3 µg/mL. `CC1(C)Oc2ccc(C(=O)Nc3ccccc3)cc2N(CC#N)C1=O` had a solubility (kinetic) of over 50.3 µg/mL. The figure for `N#Cc1nc(-c2ccc(Cl)cc2)oc1NCC1CCCO1` (configuration not stated) is 2.5 µg/mL (≈ 8.23 µM); for `COc1ccc2c(CC(=O)Nc3nccs3)coc2c1` it is 7 µg/mL (≈ 24.3 µM). Molecule `CN(Cc1ccccc1)C(=O)COC(=O)/C=C/c1ccco1` gave a kinetic solubility of over 44.9 µg/mL.

As for `CN(C)c1cc(-c2ccccc2)nc(-c2ccccc2)n1`, the solubility (kinetic) is under 0.2 µg/mL. Consider `S=C(NCCCN1CCOCC1)NC1CC1`, for which the solubility (kinetic) is over 36.5 µg/mL. The figure for `COc1ccc(C(C)(C)C)cc1NC(=O)COC(=O)C(C)C` is 33.1 µg/mL (≈ 108 µM). As for `CCc1c(O)nc(SCC(=O)N(CC)CC)[nH]c1=O`, the figure is over 42.8 µg/mL; as for `O=C(O)C1C2CCC(O2)C1C(=O)Nc1cccc(Br)c1` (configuration not stated), 50.7 µg/mL (≈ 149 µM). `COc1ccc(C(=O)NCC(=O)OCC(=O)NC2CCCCCC2)cc1OC` showed a kinetic solubility of over 58.9 µg/mL. The figure for `C/C(=N\S(=O)(=O)c1ccc(C)cc1)NC(=S)Nc1ccccc1` is 2.1 µg/mL (≈ 6.04 µM); for `N#CCN1C(=O)NC2(CCCc3sccc32)C1=O` (configuration not stated) it is over 39.2 µg/mL. As for `CC1=C(C(=O)Nc2ccccc2)S(=O)(=O)CCO1`, the figure is 38 µg/mL (≈ 142 µM).

`O=C1OC(CO)CN1Cc1ccccc1` (configuration not stated) had a solubility (kinetic) of 30.3 µg/mL (≈ 146 µM). The figure for `O=C(Nc1ccc(Nc2ccccc2)cc1)c1ccc(Cl)cc1[N+](=O)[O-]` is under 0.3 µg/mL; for `Cc1cc(=O)[nH]c2ccc(S(=O)(=O)NC3CCCCC3)cc12` it is 4.5 µg/mL (≈ 14 µM). As for `COc1ccc(CNC(=O)COC(=O)c2ccc(Br)c(S(=O)(=O)N3CCOCC3)c2)cc1`, the figure is 34.2 µg/mL (≈ 64.8 µM); as for `COc1ccc(C(=O)O/N=C(\N)Cc2ccc([N+](=O)[O-])cc2)c(OC)c1`, 39.3 µg/mL (≈ 109 µM); as for `CC(C)=CC(=O)OCC(=O)NC1CCCc2ccccc21` (configuration not stated), 25 µg/mL (≈ 87 µM). As for `O=C(Nc1cccc(F)c1)c1ccc2ncsc2c1`, the figure is 39.8 µg/mL (≈ 146 µM); as for `O=[N+]([O-])c1ncccc1OCc1ccc(Cl)c(Cl)c1`, 0.4 µg/mL (≈ 1.34 µM). The molecule `COc1cc(C)c(Cl)cc1S(=O)(=O)N1CCSC1` gave a kinetic solubility of 33 µg/mL (≈ 107 µM). `Cc1cc(OC(=O)c2ccccc2F)c([N+](=O)[O-])c(=O)[nH]1` came in with a kinetic solubility of over 43.8 µg/mL.

Take `C/C=C/C(=O)OCc1csc(CC(=O)Nc2ccccc2C)n1`: the solubility (kinetic) is over 49.6 µg/mL. The figure for `O=C1NC(=S)NC(=O)C1=Cc1ccc(OCC(=O)N2CCCC2)cc1` is 51.8 µg/mL (≈ 144 µM); for `CC(=O)c1cc2c(cc1NC(=O)Cc1ccsc1)OCO2` it is 10.5 µg/mL (≈ 34.6 µM). As for `CCn1cnc2c1c(=O)n(CC(=O)O)c(=O)n2Cc1ccccc1`, the kinetic solubility is over 49.2 µg/mL. The figure for `Clc1cccc(CN2CCc3c([nH]c4ccccc34)C2)c1` is 8.2 µg/mL (≈ 27.6 µM); for `Cc1ccc(NC(=O)CNCc2ccccc2)c(Br)c1` it is 34.3 µg/mL (≈ 103 µM). The figure for `CN1C(=O)N(C)C(=O)C2(Cc3ccccc3N3CCCC32)C1=O` (configuration not stated) is 46 µg/mL (≈ 147 µM); for `O=C(Nc1ccc2[nH]c(=O)[nH]c2c1)C(F)(F)F` it is 23.9 µg/mL (≈ 97.5 µM). As for `O=C(NCCNC(=O)c1cccc(O)c1)c1cccc(O)c1`, the figure is over 45 µg/mL; as for `COC(=O)c1sc(NC(=O)c2ccncc2)nc1C`, 27.3 µg/mL (≈ 98.4 µM); as for `O=c1c(Cc2c(F)cccc2Cl)c(O)ccn1C1CCCCCC1`, under 0.7 µg/mL. The molecule `O=C(Nc1ccc(-c2ccc([N+](=O)[O-])cc2)cc1)c1ccccc1F` displayed a kinetic solubility of under 0.4 µg/mL. As for `O=C(COc1ccc(Cl)cc1Br)OCC(=O)c1ccc[nH]1`, the figure is 6 µg/mL (≈ 16.1 µM); as for `Cn1c(-c2nonc2N)nc2ccccc21`, 4.3 µg/mL (≈ 20 µM); as for `O=C(COC(=O)c1ccc(Cl)nc1)Nc1ccc2c(c1)OCO2`, over 50.2 µg/mL.
